{"source": "patent US20240294545A1", "about": "(CSPC Zhongqi Pharmaceutical Technology (Shijiazhuang) Co., …, priority 2020, published 2024)", "key": {"ATM": {"target": "ATM (Homo sapiens (Human), UniProt Q13315)", "sequence (Q13315 whole entry)": "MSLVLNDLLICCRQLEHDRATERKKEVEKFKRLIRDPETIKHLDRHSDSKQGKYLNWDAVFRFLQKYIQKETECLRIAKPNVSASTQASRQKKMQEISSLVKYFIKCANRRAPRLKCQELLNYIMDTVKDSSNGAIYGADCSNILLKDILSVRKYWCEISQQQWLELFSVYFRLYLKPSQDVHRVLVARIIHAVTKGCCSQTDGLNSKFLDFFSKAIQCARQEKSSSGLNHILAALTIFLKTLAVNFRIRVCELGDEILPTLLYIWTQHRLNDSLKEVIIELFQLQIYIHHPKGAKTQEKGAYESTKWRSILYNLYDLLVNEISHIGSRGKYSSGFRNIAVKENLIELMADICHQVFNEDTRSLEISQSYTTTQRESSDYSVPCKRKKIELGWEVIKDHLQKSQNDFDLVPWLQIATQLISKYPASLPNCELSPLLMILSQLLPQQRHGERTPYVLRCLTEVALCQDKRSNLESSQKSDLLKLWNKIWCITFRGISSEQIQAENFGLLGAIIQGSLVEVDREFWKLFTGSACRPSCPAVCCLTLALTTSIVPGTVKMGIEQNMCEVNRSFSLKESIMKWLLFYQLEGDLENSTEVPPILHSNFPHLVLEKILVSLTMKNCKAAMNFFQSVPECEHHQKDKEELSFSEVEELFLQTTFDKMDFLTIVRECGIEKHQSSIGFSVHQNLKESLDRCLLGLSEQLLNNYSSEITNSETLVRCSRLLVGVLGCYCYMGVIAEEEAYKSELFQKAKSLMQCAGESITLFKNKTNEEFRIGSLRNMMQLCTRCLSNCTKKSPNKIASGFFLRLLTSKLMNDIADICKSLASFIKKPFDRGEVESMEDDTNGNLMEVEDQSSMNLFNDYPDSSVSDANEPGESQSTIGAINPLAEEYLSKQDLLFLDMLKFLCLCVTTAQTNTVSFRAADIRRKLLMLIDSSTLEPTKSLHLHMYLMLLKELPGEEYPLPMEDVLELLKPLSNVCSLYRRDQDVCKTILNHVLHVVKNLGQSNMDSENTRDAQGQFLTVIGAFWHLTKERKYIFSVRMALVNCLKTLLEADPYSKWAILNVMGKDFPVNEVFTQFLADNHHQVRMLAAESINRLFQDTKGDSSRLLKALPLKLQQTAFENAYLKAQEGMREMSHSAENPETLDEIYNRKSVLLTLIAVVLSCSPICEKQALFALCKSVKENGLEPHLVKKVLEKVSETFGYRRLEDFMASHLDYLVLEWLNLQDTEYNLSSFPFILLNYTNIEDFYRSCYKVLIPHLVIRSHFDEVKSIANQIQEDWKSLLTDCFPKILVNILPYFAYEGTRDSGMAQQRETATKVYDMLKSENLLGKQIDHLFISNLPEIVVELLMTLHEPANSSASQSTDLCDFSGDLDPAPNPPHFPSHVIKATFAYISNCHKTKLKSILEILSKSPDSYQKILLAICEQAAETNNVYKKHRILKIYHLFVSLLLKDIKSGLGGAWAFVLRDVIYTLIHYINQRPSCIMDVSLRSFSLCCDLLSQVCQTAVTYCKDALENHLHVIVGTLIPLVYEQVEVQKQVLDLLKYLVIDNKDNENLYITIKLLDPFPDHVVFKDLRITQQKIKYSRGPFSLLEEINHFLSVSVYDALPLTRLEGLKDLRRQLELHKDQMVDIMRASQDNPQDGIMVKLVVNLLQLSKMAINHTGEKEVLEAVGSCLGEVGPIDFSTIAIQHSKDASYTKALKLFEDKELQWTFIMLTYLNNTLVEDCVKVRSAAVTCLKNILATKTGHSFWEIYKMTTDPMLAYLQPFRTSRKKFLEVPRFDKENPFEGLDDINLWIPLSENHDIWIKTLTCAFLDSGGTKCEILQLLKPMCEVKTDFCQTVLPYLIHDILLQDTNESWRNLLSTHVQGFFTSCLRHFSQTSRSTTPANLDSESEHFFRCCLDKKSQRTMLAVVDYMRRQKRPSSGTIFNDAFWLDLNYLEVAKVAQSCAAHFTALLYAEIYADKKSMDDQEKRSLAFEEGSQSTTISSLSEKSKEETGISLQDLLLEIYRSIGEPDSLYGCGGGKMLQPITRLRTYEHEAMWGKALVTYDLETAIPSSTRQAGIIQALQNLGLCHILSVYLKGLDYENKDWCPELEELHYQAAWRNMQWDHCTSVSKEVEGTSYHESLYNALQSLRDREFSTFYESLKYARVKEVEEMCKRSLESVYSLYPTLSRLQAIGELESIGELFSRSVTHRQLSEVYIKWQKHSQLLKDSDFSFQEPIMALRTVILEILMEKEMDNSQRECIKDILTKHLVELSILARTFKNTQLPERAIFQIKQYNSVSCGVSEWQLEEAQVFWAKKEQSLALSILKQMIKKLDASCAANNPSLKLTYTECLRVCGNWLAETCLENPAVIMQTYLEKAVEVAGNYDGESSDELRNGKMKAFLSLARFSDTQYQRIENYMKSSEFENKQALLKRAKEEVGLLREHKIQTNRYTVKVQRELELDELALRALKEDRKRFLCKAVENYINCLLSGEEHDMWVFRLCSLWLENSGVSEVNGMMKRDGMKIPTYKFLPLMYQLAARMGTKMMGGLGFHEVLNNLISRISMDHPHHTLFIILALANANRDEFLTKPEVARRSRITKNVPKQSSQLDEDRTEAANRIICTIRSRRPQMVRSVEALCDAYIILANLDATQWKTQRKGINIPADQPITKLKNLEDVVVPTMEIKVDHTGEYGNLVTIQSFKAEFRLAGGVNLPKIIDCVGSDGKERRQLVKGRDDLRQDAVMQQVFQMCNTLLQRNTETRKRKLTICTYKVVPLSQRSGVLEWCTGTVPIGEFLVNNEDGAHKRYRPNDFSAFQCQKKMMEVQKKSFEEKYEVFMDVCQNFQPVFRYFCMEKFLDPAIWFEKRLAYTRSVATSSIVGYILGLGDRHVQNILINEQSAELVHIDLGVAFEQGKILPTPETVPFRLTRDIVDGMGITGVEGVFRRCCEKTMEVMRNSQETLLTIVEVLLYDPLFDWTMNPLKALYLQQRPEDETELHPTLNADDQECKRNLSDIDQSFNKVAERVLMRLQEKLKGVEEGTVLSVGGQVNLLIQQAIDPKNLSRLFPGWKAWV", "test": "Caliper mobility shift assay for ATM", "format": "biochemical", "settings": "read-out: IC50 of inhibitory activity on ATM kinase", "protocol": "1.2 Determination of the Inhibitory Activities of Compounds on ATM: Caliper Mobility Shift Assay for ATM\nTo a 96-well plate, 98 μL of DMSO and 2 μL of the 10 mM stock solution were added and mixed evenly so that the concentration of the solution was 200 μM.\nBased on the inhibitory rates of the compound at different concentrations, IC50 was calculated according to the formula: Y=Bottom+(Top−Bottom)/(1+(IC50/X)^HillSlope)."}, "[1]": {"test_system": "subcutaneous xenograft tumor of human colon cancer cell line HT-29", "test": "HT-29 subcutaneous xenograft, combined with irinotecan liposome injection", "format": "in vivo, NU/NU mice", "settings": "for inhibitory effect on tumor volume and tumor weight, in words: combined with irinotecan liposome injection, compared with AZD1390; for D 16 TGI / D 16 TV (MEAN ± SD) / Tumor weight / Tumor weight inhibitory rate: compound 25 mg/kg intragastric + irinotecan liposome 10 mg/kg ip; for D 16 TGI / D 16 TV (MEAN ± SD): day 16; for Tumor weight / Tumor weight inhibitory rate: end of test", "protocol": "7 Efficacy Test of the Compounds of the Present Disclosure Combined with Irinotecan Liposome Injection on Inhibiting the Growth of Subcutaneous Xenograft Tumor of Human Colon Cancer Cell Line HT-29\n7.1 Experimental Animals: NU/NU Mice, SPF, Female, 20 to 30 g.\nIrinotecan liposome injection (HE072), 43 mg: 10 mL, milky white liquid, batch No. B37191202, provided by Preparation Research Institute 2 from CSPC Zhongqi Pharmaceutical Technology (Shijiazhuang) Co., Ltd., diluted to an appropriate concentration with 5% glucose injection while testing.\nHT-29 cell, provided by Nanjing Kebai Biotechnology Co., Ltd.; 5A culture medium:fetal bovine serum=90%:10%, 37° C., 5% CO2.\nNU/NU nude mice were subcutaneously inoculated with HT-29 human colon cancer cells. When the mean tumor volume reached about 170 mm^3 (9 days after inoculation), the animals were evenly divided into groups according to the tumor volume (d0), with 6 mice in each group. 10 mg/kg of HE072 was administered intraperitoneally once a week for 1 time. Vehicle control, 25 mg/kg of A-6, 25 mg/kg of A-46, and 25 mg/kg of AZD1390 were administered intragastrically once a day, from Monday to Thursday every week except Friday to Sunday, for 1 week (4 times). The tumor volume was measured twice a week, the body weight of mouse was weighed every day, and the data were recorded. The tumor volume (TV) was calculated according to the formula: TV=½×a×b2, wherein a and b represent the long and short diameters of tumor, respectively. Tumor growth inhibitory rate TGI (%)=[1−(Ti−T0)/(Vi−V0)]×100, wherein Ti represents the mean tumor volume of a given treatment group on a certain day; TO represents the mean tumor volume of this treatment group at the beginning of administration; Vi represents the mean tumor volume of the vehicle control group on a certain day (the same day as that in Ti); V0 represents the mean tumor volume of the vehicle control group at the beginning of administration. At the end of the test (d17), the animals were sacrificed, the tumors were stripped and weighed, and the tumor weight inhibitory rates were calculated."}, "[2]": {"test_system": "subcutaneous xenograft tumor of human glioblastoma LN-18", "test": "LN-18 subcutaneous xenograft, combined with radiotherapy", "format": "in vivo, NOG mice", "settings": "day 17", "protocol": "9 Efficacy Test of the Compounds of the Present Disclosure Combined with Radiotherapy on Inhibiting the Growth of Subcutaneous Xenograft Tumor of Human Glioblastoma LN-18\n9.1 Experimental Animals: NOG Mice, SPF, Female, 18 to 22 g.\nLN-18 tumor cells, DMEM medium:fetal bovine serum=95%:5%, accompanied by adding 100 U/mL penicillin and 100 μg/mL streptomycin, 37° C., 5% CO2.\nLN18 tumor cells resuspended in serum-free DMEM medium were inoculated subcutaneously in the right costal region of experimental animals at 1.5*10^7/0.15 mL, and the animals were grouped when the tumor grew to 100 to 150 mm^3. Radiotherapy was performed 1 h after administration of compounds.\nTumor volume: The tumor volume was measured twice a week with a vernier caliper, and the long diameter and short diameter of tumor were measured. The tumor volume was calculated as follows: tumor volume (TV)=0.5×long diameter×short diameter^2. Tumor growth inhibitory rate (TGI %) was calculated according to the tumor volume. TVXn represents the mean tumor volume on day n of the treatment group, TVX0 represents the mean tumor volume on day 0 of the treatment group, TVMn represents the mean tumor volume on day n of the control group, and TVM0 represents the mean tumor volume on day 0 of the control group."}, "ATM-phosphorylated KAP1": {"test_system": "ATM-phosphorylated KAP1", "test": "Intracellular ATM-phosphorylated KAP1 level, ICW assay in MCF7 cells", "format": "cell-based, Human", "settings": "MCF7 cells, 2 h compound, 10 Gy irradiation, further 1 h, read-out: pKAP1 IC50", "protocol": "4 Inhibition on Intracellular ATM-Phosphorylated KAP1 Level by the Compounds of the Present Disclosure: ICW Assay\n• Cell: Human breast cancer cell line MCF7 • Materials and reagents:\n4.2 Experimental Procedures\n• (1) Cell inoculation • MCF7 cells were inoculated on a 384-well plate, 10000 cells/well (25 μL/well), and cultured overnight at 37° C. with 5% CO2. • (2) Activity detection • 1) The compound was formulated into a 100 mM solution with DMSO and then sequentially diluted with a gradient of 1:3 to yield a total of 10 concentration gradients, wherein the maximum concentration was 100 μM. • 2) 25 nL of each of the compound solutions with gradient concentrations prepared in step 1) was added to each well of the cell plate (Corning #356663) by using I-DOT One, resulting in a final concentration of 100 nM (maximum dose). • 3) The cell plate containing compound was incubated at 37° C. with 5% CO2 for 2 h. After 2 h, the cell plate was irradiated with a dose of 10 Gy, and then further incubated for 1 h. • 4) 25 μL of 8% paraformaldehyde was added to each well, followed by incubating at room temperature for 20 min. • 5) The 8% paraformaldehyde was discarded, followed by adding 0.1% TrintonX-100 and incubating at room temperature for 30 min. • 6) Odessey blocking buffer was added at 50 μL/well, followed by incubating at room temperature for 1.5 h. • 7) The Odessey blocking buffer was discarded, and then a primary antibody (Phospho-KAP1, 1:2000 dilution) was added, followed by incubating overnight at 4° C. • 8) The primary antibody was removed, followed by washing with PBS+0.1% Tween 20 for 5 times. • 9) DNA dye DRAQ5 coated with a second antibody (IRDye 800CW Goat anti-Rabbit, 1:4000 dilution) was added, followed by incubating at room temperature for 1 h. • 10) The second antibody was removed, followed by washing with PBS+0.1% Tween 20 for 5 times. • 11) PBS+0.1% Tween 20 was sucked off with Odyssey. • (3) Data analysis • 1) the relative ratio of Channel 800/Channel 700 for each well was detected. • 2) % of KAP1 phosphorylation was calculated according to the following formula:\n% of KAP1 phosphorylation=[(Ratiocmpd−(Ratio)Positive)/((Ratio)Vehicle−(Ratio)Positive]*100 • (Ratio)Positive: the mean value of the test values of each positive control well in the test cell plate; • (Ratio)Vehicle: the mean value of the test values of each negative control well in the test cell plate. • 3) the IC50 of each compound was calculated and the dose-effect curve was plotted: % of KAP1 phosphorylation and log of compound's concentration were fit by using Graphpad 8.0 so as to calculate the IC50.\n[formula] • X: log of compound's concentration • Y: % of KAP1 phosphorylation"}, "[3]": {"settings": "compound 10 mg/kg intragastric qd × 5 + IR 1 Gy"}, "[4]": {"settings": "compound 20 mg/kg intragastric qd × 5 + IR 1 Gy"}}, "note": "Like-named read-outs stand apart in the source and are kept apart here. Marks after values point to notes of the source that are not given here.", "data": [{"compound": "Cn1c(=O)n2c3c4c(c(-c5ccc(OCCCN6CCCCC6)nc5)c(F)cc4ncc31)OCC2(C)C", "note": "[Example A-6, 6-fluoro-2,10,10-trimethyl-7-(6-(3-(piperidin-1-yl)propoxy)pyridin-3-yl)-9,10-dihydro-8-oxa-2,4,10a-triazanaphtho[2,1,8-cde]azulen-1(2H)-one]", "values": [{"measurement": "IC50", "setting": "ATM", "result": 0.37, "unit": "nM"}, {"measurement": "inhibitory effect on tumor volume and tumor weight, in words", "setting": "[1]", "result": "higher than those of AZD1390"}, {"measurement": "D 16 TGI", "setting": "[1]", "result": 100.4, "unit": "%"}, {"measurement": "D 16 TV (MEAN ± SD)", "setting": "[1]", "result": "163.8 ± 62.8***^### mm^3"}, {"measurement": "Tumor weight", "setting": "[1]", "result": "0.12 ± 0.03", "unit": "g"}, {"measurement": "Tumor weight inhibitory rate", "setting": "[1]", "result": 82.4, "unit": "%"}]}, {"compound": "CN(C)CCCOc1ccc(-c2c(F)cc3ncc4c5c3c2OCC(C)(C)n5c(=O)n4C)cn1", "note": "[Example A-46, 7-(6-(3-(dimethylamino)propoxy)pyridin-3-yl)-6-fluoro-2,10,10-trimethyl-9,10-dihydro-8-oxa-2,4,10a-triazanaphtho[2,1,8-cde]azulen-1(2H)-one]", "values": [{"measurement": "IC50", "setting": "ATM", "result": 0.52, "unit": "nM"}, {"measurement": "inhibitory effect on tumor volume and tumor weight, in words", "setting": "[1]", "result": "higher than those of AZD1390"}, {"measurement": "D 16 TGI", "setting": "[1]", "result": 102.2, "unit": "%"}, {"measurement": "D 16 TV (MEAN ± SD)", "setting": "[1]", "result": "149.5 ± 67.4***^### mm^3"}, {"measurement": "Tumor weight", "setting": "[1]", "result": "0.12 ± 0.06", "unit": "g"}, {"measurement": "Tumor weight inhibitory rate", "setting": "[1]", "result": 82.0, "unit": "%"}]}, {"compound": "CC[C@H]1COc2c(-c3ccc(OCCCN(C)C)nc3)ccc3ncc4c(c23)n1c(=O)n4C", "note": "[Example A-189, (S)-7-(6-(3-(dimethylamino)propoxy)pyridin-3-yl)-10-ethyl-2-methyl-9,10-dihydro-8-oxa-2,4,10a-triazanaphtho[2,1,8-cde]azulen-1(2H)-one]", "values": [{"measurement": "IC50", "setting": "ATM", "result": 0.38, "unit": "nM"}]}, {"compound": "C[C@H]1CNc2c(-c3ccc(OCCCN4CCCCC4)nc3)c(F)cc3ncc4c(c23)n1c(=O)n4C", "note": "[Example A-191, (S)-6-fluoro-2,10-dimethyl-7-(6-(3-(piperidin-1-yl)propoxy)pyridin-3-yl)-2,8,9,10-tetrahydro-1H-2,4,8,10a-tetraazanaphtho[2,1,8-cde]azulen-1(2H)-one]", "values": [{"measurement": "IC50", "setting": "ATM", "result": 0.69, "unit": "nM"}, {"measurement": "D 17 TGI", "setting": "[2]; [3]", "result": 76.9, "unit": "%"}, {"measurement": "D 17 TV (MEAN ± SD)", "setting": "[2]; [3]", "result": "347 ± 64***^ mm^3"}]}, {"compound": "Cn1c(=O)n2c3c4c(c(-c5ccc(OCCCN6CCCCC6)nc5)c(F)cc4ncc31)NCC21CCC1", "note": "[Example A-192, 6-fluoro-2-methyl-7-(6-(3-(piperidin-1-yl)propoxy)pyridin-3-yl)-8,9-dihydrospiro[2,4,8,10a-tetraazanaphtho[2,1,8-cde]azulene-10,1′-cyclobutan]-1(2H)-one]", "values": [{"measurement": "IC50", "setting": "ATM", "result": 0.53, "unit": "nM"}, {"measurement": "IC50", "setting": "ATM-phosphorylated KAP1; Homo sapiens, light or radiation study", "result": 1.44, "unit": "nM"}, {"measurement": "D 17 TGI", "setting": "[2]; [4]", "result": 79.6, "unit": "%"}, {"measurement": "D 17 TV (MEAN ± SD)", "setting": "[2]; [4]", "result": "323 ± 114***^# mm^3"}]}, {"compound": "C[C@@H]1CNc2c(-c3ccc(OCCCN4CCCCC4)nc3)c(F)cc3ncc4c(c23)n1c(=O)n4C", "note": "[Example A-195, (R)-6-fluoro-2,10-dimethyl-7-(6-(3-(piperidin-1-yl)propoxy)pyridin-3-yl)-2,8,9,10-tetrahydro-1H-2,4,8,10a-tetraazanaphtho[2,1,8-cde]azulen-1(2H)-one]", "values": [{"measurement": "IC50", "setting": "ATM", "result": 0.41, "unit": "nM"}]}, {"compound": "CC[C@H]1CNc2c(-c3ccc(OCCCN4CCCCC4)nc3)c(F)cc3ncc4c(c23)n1c(=O)n4C", "note": "[Example A-196, (S)-10-ethyl-6-fluoro-2-methyl-7-(6-(3-(piperidin-1-yl)propoxy)pyridin-3-yl)-2,8,9,10-tetrahydro-1H-2,4,8,10a-tetraazanaphtho[2,1,8-cde]azulen-1(2H)-one]", "values": [{"measurement": "IC50", "setting": "ATM", "result": 0.51, "unit": "nM"}]}, {"compound": "C[C@@H]1CNc2c(-c3ccc(OCCCN4CCCCC4)nc3)ccc3ncc4c(c23)n1c(=O)n4C", "note": "[Example A-199, (R)-2,10-dimethyl-7-(6-(3-(piperidin-1-yl)propoxy)pyridin-3-yl)-2,8,9,10-tetrahydro-1H-2,4,8,10a-tetraazanaphtho[2,1,8-cde]azulen-1(2H)-one]", "values": [{"measurement": "IC50", "setting": "ATM", "result": 0.92, "unit": "nM"}, {"measurement": "IC50", "setting": "ATM-phosphorylated KAP1", "result": 0.78, "unit": "nM"}]}, {"compound": "Cn1c(=O)n2c3c4c(c(-c5ccc(OCCCN6CCCCC6)nc5)ccc4ncc31)NCC21CCC1", "note": "[Example A-202, 2-methyl-7-(6-(3-(piperidin-1-yl)propoxy)pyridin-3-yl)-8,9-dihydrospiro[2,4,8,10a-tetraazanaphtho[2,1,8-cde]azulene-10,1′-cyclobutan]-1(2H)-one]", "values": [{"measurement": "IC50", "setting": "ATM", "result": 0.23, "unit": "nM"}]}, {"compound": "C[C@H]1COc2c(-c3ccc(OCCCN4CCC(C)(C)CC4)nc3)ccc3ncc4c(c23)n1c(=O)n4C", "note": "[Example A-207, (S)-7-(6-(3-(4,4-dimethylpiperidin-1-yl)propoxy)pyridin-3-yl)-2,10-dimethyl-9,10-dihydro-8-oxa-2,4,10a-triazanaphtho[2,1,8-cde]azulen-1(2H)-one]", "values": [{"measurement": "IC50", "setting": "ATM", "result": 0.44, "unit": "nM"}]}, {"compound": "CC1CCN(CCCOc2ccc(-c3ccc4ncc5c6c4c3OC[C@H](C)n6c(=O)n5C)cn2)CC1", "note": "[Example A-208, (S)-2,10-dimethyl-7-(6-(3-(4-methylpiperidin-1-yl)propoxy)pyridin-3-yl)-9,10-dihydro-8-oxa-2,4,10a-triazanaphtho[2,1,8-cde]azulen-1(2H)-one]", "values": [{"measurement": "IC50", "setting": "ATM", "result": 0.29, "unit": "nM"}]}]}
